Experimental data from PMC10204800 (Frontiers in Pharmacology, 2023).

Target: T1, hDOR (human delta opioid receptor) (Homo sapiens, UniProt P41143)
T1 construct: gene OPRD1; stably transfected in CHO cells (CHO-hDOR); membrane homogenates
Format: binding
Conditions: read-out: Ki values (nM) Mean (SEM)

T1 sequence (P41143 whole entry): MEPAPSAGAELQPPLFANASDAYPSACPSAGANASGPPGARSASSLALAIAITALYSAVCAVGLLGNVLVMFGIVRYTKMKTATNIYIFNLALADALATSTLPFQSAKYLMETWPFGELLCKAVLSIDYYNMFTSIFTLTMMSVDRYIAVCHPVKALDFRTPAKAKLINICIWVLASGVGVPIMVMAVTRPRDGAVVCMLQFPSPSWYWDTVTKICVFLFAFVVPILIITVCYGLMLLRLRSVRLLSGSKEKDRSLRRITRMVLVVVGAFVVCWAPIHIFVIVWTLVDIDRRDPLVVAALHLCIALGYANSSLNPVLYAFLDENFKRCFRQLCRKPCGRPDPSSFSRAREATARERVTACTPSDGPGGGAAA

For “(4R,4aS,6R,7R,7aR,12bS)-3-(cyclopropylmethyl-d 2 )-6-(2-hydroxy-3,3-dimethylbutan-2-yl)-7-methoxy-1,2,3,4,5,6,7,7a-octahy dro-4a,7-ethano-4,12-methanobenzofuro[3,2-e]isoquinolin-9-ol [BUP-D2]”, the Ki was 0.424 nM.
